The results in this text go back to publication PMC7794376 (Nature Communications, 2021).

Molecules are shown by their SMILES. “And” between values parts separate entries of the source, which are not always exact repeats. Equal entries are not always repeated.

Type in all cases: biochemical
Experiment [1] concerns the target T1, MtbCoaBC (Mycobacterium tuberculosis, UniProt P9WNZ1). Kind of experiment: CMP quantification assay (UPLC), second half of CoaB reaction, variable L-cysteine. The conditions noted are these: for CMP formation rate, uM CMP/uM protein.s-1: MtbCoaBC 32nM, replicates R1-R3.
Experiment [2] deals with T1, MtbCoaBC. Kind of experiment: Competition assays, first half of CoaB reaction (EnzChek, variable CTP or PPA). The conditions noted are these: for mode of inhibition: in words.
For experiment [3], the target named is T1, MtbCoaBC. Kind of experiment: biochemical. The conditions noted are these: for Activity %: relative to average CT; for Activity % / Inhibition % / Activity: replicates R1-R3; for Activity: slope of absorbance at 360 nm vs time (s); for inhibition, replicates / reaction rate (slope of absorbance at 360 nm over time), replicates: IC50 MtbCoaBC AcCoA.
Experiment [4] addresses T1, MtbCoaBC. Kind of experiment: High-throughput end-point pyrophosphate quantification assay (Biomol Green).
[5] abbreviates: AcCoA concentration 512 (log 2.70927).
Where [6] appears, read: AcCoA concentration 1024 (log 3.0103).

T1 sequence (P9WNZ1 whole entry): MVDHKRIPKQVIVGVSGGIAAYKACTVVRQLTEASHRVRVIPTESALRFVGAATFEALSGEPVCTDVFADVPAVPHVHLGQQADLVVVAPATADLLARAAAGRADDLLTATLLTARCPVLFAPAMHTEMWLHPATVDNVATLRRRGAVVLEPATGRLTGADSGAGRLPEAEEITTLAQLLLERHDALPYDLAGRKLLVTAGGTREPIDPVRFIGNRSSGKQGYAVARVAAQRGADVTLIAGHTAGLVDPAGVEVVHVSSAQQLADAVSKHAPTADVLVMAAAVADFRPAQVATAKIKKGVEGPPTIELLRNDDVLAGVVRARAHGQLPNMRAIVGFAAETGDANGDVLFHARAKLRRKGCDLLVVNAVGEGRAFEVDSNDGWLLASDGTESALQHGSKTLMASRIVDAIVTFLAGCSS

In general, Ki refers to the dissociation constant of the complex between target and ligand, obtained from inhibition or displacement. What is called IC50 is the midpoint of a concentration-inhibition curve. Regarding `CC(=O)SCCNC(=O)CCNC(=O)[C@H](O)C(C)(C)COP(=O)(O)OP(=O)(O)OC[C@H]1O[C@@H](n2cnc3c(N)ncnc32)[C@H](O)[C@@H]1OP(=O)(O)O` [AcCoA, acetyl-CoA], the “CMP formation rate, uM CMP/uM protein.s-1” value is 0.1004 uM CMP/uM protein.s-1 and 0.1195 uM CMP/uM protein.s-1 and 0.1103 uM CMP/uM protein.s-1 on MtbCoaBC [1] (32uM AcCoA, 31.25 uM cysteine); 0.1434 uM CMP/uM protein.s-1 and 0.1547 uM CMP/uM protein.s-1 and 0.1394 uM CMP/uM protein.s-1 on MtbCoaBC [1] (32uM AcCoA, 62.5 uM cysteine); 0.2114 uM CMP/uM protein.s-1 and 0.2235 uM CMP/uM protein.s-1 and 0.2345 uM CMP/uM protein.s-1 at MtbCoaBC [1] (32uM AcCoA, 250 uM cysteine); 0.2276 uM CMP/uM protein.s-1 and 0.2314 uM CMP/uM protein.s-1 and 0.2458 uM CMP/uM protein.s-1 at MtbCoaBC [1] (32uM AcCoA, 500 uM cysteine); 0.08802 uM CMP/uM protein.s-1 and 0.06801 uM CMP/uM protein.s-1 and 0.07425 uM CMP/uM protein.s-1 on MtbCoaBC [1] (64uM AcCoA, 31.25 uM cysteine); 0.1006 uM CMP/uM protein.s-1 and 0.1253 uM CMP/uM protein.s-1 and 0.1155 uM CMP/uM protein.s-1 at MtbCoaBC [1] (64uM AcCoA, 62.5 uM cysteine). Moreover, the “CMP formation rate, uM CMP/uM protein.s-1” value on MtbCoaBC [1] (64uM AcCoA, 250 uM cysteine) was 0.1479 uM CMP/uM protein.s-1 and 0.156 uM CMP/uM protein.s-1 and 0.1565 uM CMP/uM protein.s-1; at MtbCoaBC [1] (64uM AcCoA, 500 uM cysteine) it was 0.1756 uM CMP/uM protein.s-1 and 0.1564 uM CMP/uM protein.s-1 and 0.1555 uM CMP/uM protein.s-1; on MtbCoaBC [1] (128uM AcCoA, 31.25 uM cysteine) it was 0.04605 uM CMP/uM protein.s-1 and 0.05632 uM CMP/uM protein.s-1 and 0.0514 uM CMP/uM protein.s-1; on MtbCoaBC [1] (128uM AcCoA, 62.5 uM cysteine), 0.06616 uM CMP/uM protein.s-1 and 0.09648 uM CMP/uM protein.s-1 and 0.09325 uM CMP/uM protein.s-1; on MtbCoaBC [1] (128uM AcCoA, 250 uM cysteine), 0.09625 uM CMP/uM protein.s-1 and 0.1011 uM CMP/uM protein.s-1 and 0.1018 uM CMP/uM protein.s-1; at MtbCoaBC [1] (128uM AcCoA, 500 uM cysteine), 0.1011 uM CMP/uM protein.s-1 and 0.1154 uM CMP/uM protein.s-1 and 0.1123 uM CMP/uM protein.s-1. Also, the mode of inhibition result on MtbCoaBC [1] (relative to L-cysteine, in words) is reported as “non-competitive inhibition”; on MtbCoaBC [2] (relative to CTP), “competitive”; at MtbCoaBC [2] (relative to PPA) it was “competitive”. Also, the Ki on MtbCoaBC [1] (variable substrate L-cysteine) amounted to 62.1 ± 2 µM; at MtbCoaBC [2] (variable substrate CTP), 22.5 ± 1.7 µM; on MtbCoaBC [2] (variable substrate PPA) it was 22.4 ± 1.4 µM. Further, the Inibition type result at MtbCoaBC [2] (variable substrate CTP) and on MtbCoaBC [2] (variable substrate PPA) was “C (C competitive inhibition)” in each case. Further, the Activity % at MtbCoaBC [3] (8 uM AcCoA) was 102.2% and 99.12% and 97.26%; on MtbCoaBC [3] (16 uM AcCoA), 97.8% and 95.95%; on MtbCoaBC [3] (32 uM AcCoA) it was 83.56% and 84.79% and 80.02%; at MtbCoaBC [3] (64 uM AcCoA), 72.03% and 75.67% and 69.98%; at MtbCoaBC [3] (128 uM AcCoA), 46.95% and 48.75% and 44.16%; at MtbCoaBC [3] (256 uM AcCoA), 25.68% and 25.48% and 26.76%. Besides, the Inhibition % was 0.88% and 2.74% and -2.21% at MtbCoaBC [3] (8 uM AcCoA); 2.20% and 4.05% on MtbCoaBC [3] (16 uM AcCoA); 15.21% and 19.98% and 16.44% on MtbCoaBC [3] (32 uM AcCoA); 24.33% and 30.02% and 27.97% at MtbCoaBC [3] (64 uM AcCoA); 51.25% and 55.84% and 53.05% at MtbCoaBC [3] (128 uM AcCoA); 74.52% and 73.24% and 74.32% at MtbCoaBC [3] (256 uM AcCoA). Further, the Activity was 0.0001687 and 0.0001636 and 0.0001606 on MtbCoaBC [3] (8 uM AcCoA); 0.0001621 and 0.0001615 and 0.0001584 at MtbCoaBC [3] (16 uM AcCoA); 0.0001379 and 0.00014 and 0.0001321 on MtbCoaBC [3] (32 uM AcCoA); 0.0001189 and 0.0001249 and 0.0001155 at MtbCoaBC [3] (64 uM AcCoA); 0.000077520 and 0.000080489 and 0.000072900 on MtbCoaBC [3] (128 uM AcCoA); 0.000042403 and 0.000042072 and 0.000044186 at MtbCoaBC [3] (256 uM AcCoA). In addition, on MtbCoaBC [3] (CoaB activity, […] CTP, […] PPA, 500 µM L-cysteine, average of three independent experiments ± SD, read-out: IC50 EnzChek MtbCoaBC), the 50% inhibitory concentration (IC50) was 121 ± 9 µM. The “inhibition, replicates” value is 81.65 and 87.30 and 84.02 on MtbCoaBC [3] (setting [5]); 99.03 and 98.19 and 97.42 at MtbCoaBC [3] (setting [6]). The “reaction rate (slope of absorbance at 360 nm over time), replicates” value on MtbCoaBC [3] (setting [5]) was 0.000026380 and 0.000030299 and 0.000020964; at MtbCoaBC [3] (setting [6]) it was 0.000004262 and 0.000001602 and 0.000002982.
As for `O=C(c1ccccc1)c1ccc(O)c(O)c1O` [compound 1a], the IC50 on MtbCoaBC [4] (MtbCoaB activity, end-point, 2 µM CTP, 40 µM L-cysteine, 30 µM PPA, read-out: IC50 biomol green assay) is 9 µM.
On to `O=c1cc(-c2ccccc2)oc2cc(O)c(O)c(O)c12` [2a], for which inhibition against MtbCoaBC [4] was half-maximal at 3.1 µM (IC50).
